Assay results: patent US8716326B2, “Isoindolinone derivatives, preparation method thereof and a pharmaceutical composition comprising same” (Korea Research Institute of Chemical Technology, priority 2009, dated 2014)

Test system: Runx2
Assay: Runx2 activity, 6xOSE2-Luc luciferase reporter in transfected C2C12 cells
Assay type: cell-based, Mouse
Details: Mus musculus, 24 hrs, read-out: luciferase activity relative to control set as 1
Procedure: Mouse premyoblast cell (C2C12 cell) was transfected using receptor vector 6xOSE2-Luc in order to investigate the activity of the amide compound of the present invention on Runx2.
Specifically, the receptor vector 6xOSE2-Luc was prepared by inserting an artificial promoter linked by six tandem copies of the OSE2 (osteoblast specific element-2) into vector pGL3 (Promega; Madison, Wis., U.S.A.), and then, cloned into the C2C12 cell to be transfected (Kim et al., Journal of Cellular Biochemistry, 91: 1239-1247, 2004). The OSE2 is the binding site of Runx2 in the promoter of osteocalcin which is a bone marker.
C2C12 cells (5,000 cells/well) were plated onto 96-well plates using 10% FBS (fetal bovine serum; Hyclone)-containing DMEM (Dulbecco's Modified Eagle's Medium), the medium was replaced with 5% FBS-containing DMEM after 24 hrs, and treated with each of the amide compounds obtained in Examples 1 to 94 at various concentrations of 2.5 μM, 5.0 μM, 10 μM, and 20 μM. As a control, dimethyl sulfoxide (DMSO) vehicle was applied to the cell in an amount same as that of the amide compound. After 24 hrs, the luciferase activity in the cell lysate was measured by using Dual-Luciferase Reporter Assay System (Promega). The luciferase activity of the amide compound of the present invention was calculated as a value relative to that observed for the control which was set as 1.

Which results are given for `Nc1ccccc1NC(=O)c1ccc(CN2Cc3cc(-c4ccc5ccccc5c4)ccc3C2=O)cc1` [Example 67, N-(2-aminophenyl)-4-((5-(naphthalen-2-yl)-1-oxoisoindolin-2-yl)methyl)benzamide]?
fold induction at 2.5 µM: 1.4; fold induction at 5 µM: 2; fold induction at 10 µM: 2.9; fold induction at 20 µM: 6.1

How did the fold induction at 2.5 µM turn out when `COc1cc(C(=O)NCc2ccc(C(=O)Nc3ccccc3N)cc2)c(C)c(-c2ccccc2)c1OC` [Example 74, N-(2-aminophenyl)-4-((2-methyl-3-phenyl-4,5-dimethoxy-benzamido)methyl)benzamide] was run?
The fold induction at 2.5 µM was 25.1.

And the fold induction at 5 µM?
Its fold induction at 5 µM is 31.1.

What about the fold induction at 10 µM of the same compound?
The fold induction at 10 µM was 38.5.

What about the fold induction at 20 µM of the same compound?
The fold induction at 20 µM was 38.9.

For `N#Cc1ccc(-c2ccc3c(c2)CN(Cc2ccc(C(=O)Nc4ccccc4N)cc2)C3=O)cc1` [Example 65, N-(2-aminophenyl)-4-[5-(4-cyanophenyl)-1-oxo-2,3-dihydro-1H-isoindol-2-yl]methylbenzamide], which fold induction at 2.5 µM is on record?
The fold induction at 2.5 µM was 12.9.

And the fold induction at 5 µM?
Its fold induction at 5 µM is 15.7.

And the fold induction at 10 µM?
The fold induction at 10 µM was 13.5.

What about the fold induction at 20 µM of the same compound?
The fold induction at 20 µM was 11.4.

What does the source list for `Nc1cccc(-c2cccc3c2CN(Cc2ccc(C(=O)Nc4ccccc4N)cc2)C3=O)c1` [Example 18, N-(2-aminophenyl)-4-((4-(3-aminophenyl)-1-oxoisoindolin-2-yl)methyl)benzamide]?
fold induction at 2.5 µM: 15.3; fold induction at 5 µM: 16.2; fold induction at 10 µM: 20.2; fold induction at 20 µM: 18.5

`Nc1ccccc1NC(=O)c1ccc(CN2Cc3c(cccc3-c3ccc(Oc4ccccc4)cc3)C2=O)cc1` [Example 29, N-(2-aminophenyl)-4-((1-oxo-4-(4-phenoxyphenyl)isoindolin-2-yl)methyl)benzamide] was tested. Which fold induction at 2.5 µM did it give?
Its fold induction at 2.5 µM is 3.4.

And the fold induction at 5 µM?
The fold induction at 5 µM was 5.6.

What about the fold induction at 10 µM of the same compound?
Its fold induction at 10 µM is 10.5.

What about the fold induction at 20 µM of the same compound?
The fold induction at 20 µM was 10.

What does the source list for `COc1ccc(-c2c3c(cc(OC)c2OC)C(=O)N(Cc2ccc(C(=O)Nc4ccccc4N)cc2)C3)cc1OC` [Example 7, N-(2-aminophenyl)-4-((5,6-dimethoxy-4-(3,4-dimethoxyphenyl)-1-oxoisoindolin-2-yl)methyl)benzamide]?
fold induction at 2.5 µM: 24.6; fold induction at 5 µM: 26.9; fold induction at 10 µM: 24.3; fold induction at 20 µM: 18.4

With `O=C(CCCCCN1Cc2c(cccc2-c2cc(F)cc(F)c2)C1=O)NO` [Example 42, 6-(4-(3,5-difluorophenyl)-1-oxoisoindolin-2-yl)-N-hydroxyhexanamide] as the compound, how does the fold induction at 2.5 µM read?
Its fold induction at 2.5 µM is 3.1.

What about the fold induction at 5 µM of the same compound?
Its fold induction at 5 µM is 10.8.

What about the fold induction at 10 µM of the same compound?
Its fold induction at 10 µM is 22.3.

What about the fold induction at 20 µM of the same compound?
The fold induction at 20 µM was 17.9.

For `Cc1c(Br)cccc1C(=O)NCc1ccc(C(=O)Nc2ccccc2N)cc1` [Example 68, N-(2-aminophenyl)-4-((3-bromo-2-methylbenzamido)methyl)benzamide], which fold induction at 2.5 µM is on record?
Its fold induction at 2.5 µM is 9.

And the fold induction at 5 µM?
Its fold induction at 5 µM is 10.1.

And the fold induction at 10 µM?
The fold induction at 10 µM was 12.8.

What about the fold induction at 20 µM of the same compound?
Its fold induction at 20 µM is 15.6.

For `Nc1ccccc1NC(=O)c1ccc(CN2Cc3c(cccc3-c3cncnc3)C2=O)cc1` [Example 10, N-(2-aminophenyl)-4-((1-oxo-4-(pyrimidin-5-yl)isoindolin-2-yl)methyl)benzamide], which fold induction at 2.5 µM is on record?
Its fold induction at 2.5 µM is 7.9.

What about the fold induction at 5 µM of the same compound?
Its fold induction at 5 µM is 11.6.

And the fold induction at 10 µM?
The fold induction at 10 µM was 14.4.

And the fold induction at 20 µM?
The fold induction at 20 µM was 16.7.

With `Nc1ccccc1NC(=O)c1ccc(CN2Cc3cc(-c4cncnc4)ccc3C2=O)cc1` [Example 58, N-(2-aminophenyl)-4-((1-oxo-5-(pyrimidin-5-yl)isoindolin-2-yl)methyl)benzamide] as the compound, how does the fold induction at 2.5 µM read?
Its fold induction at 2.5 µM is 11.7.

And the fold induction at 5 µM?
Its fold induction at 5 µM is 17.1.

What about the fold induction at 10 µM of the same compound?
Its fold induction at 10 µM is 21.6.

And the fold induction at 20 µM?
Its fold induction at 20 µM is 21.6.

Which fold induction at 2.5 µM does the source give for `COc1ccc(-c2cccc3c2CN(CCCCCC(=O)NO)C3=O)cc1OC` [Example 40, N-hydroxy-6-(4-(3,4-dimethoxyphenyl)-1-oxoisoindolin-2-yl)hexanamide] here?
Its fold induction at 2.5 µM is 1.1.

And the fold induction at 5 µM?
Its fold induction at 5 µM is 1.1.

And the fold induction at 10 µM?
The fold induction at 10 µM was 1.7.

What about the fold induction at 20 µM of the same compound?
Its fold induction at 20 µM is 1.6.

`Nc1ccccc1NC(=O)CCCCCN1Cc2c(cccc2-c2ccccc2)C1=O` [Example 37, N-(2-aminophenyl)-6-(1-oxo-4-phenylisoindolin-2-yl)hexanamide] was tested. Which fold induction at 2.5 µM did it give?
The fold induction at 2.5 µM was 1.6.

What about the fold induction at 5 µM of the same compound?
The fold induction at 5 µM was 2.6.

What about the fold induction at 10 µM of the same compound?
Its fold induction at 10 µM is 6.8.

And the fold induction at 20 µM?
The fold induction at 20 µM was 12.5.

For `Cc1c(C(=O)NCc2ccc(C(=O)Nc3ccccc3N)cc2)cccc1-c1cncnc1` [Example 70, N-(2-aminophenyl)-4-((2-methyl-3-(5-pyrimidinyl)benzamido)methyl)benzamide], which fold induction at 2.5 µM is on record?
Its fold induction at 2.5 µM is 8.9.

And the fold induction at 5 µM?
The fold induction at 5 µM was 20.6.

And the fold induction at 10 µM?
Its fold induction at 10 µM is 30.1.

And the fold induction at 20 µM?
Its fold induction at 20 µM is 40.2.

What does the source list for `COc1ccc(-c2ccc3c(c2)CN(CCCCCC(=O)NO)C3=O)cc1OC` [Example 51, N-hydroxy-6-(5-(3,4-dimethoxyphenyl)-1-oxoisoindolin-2-yl)hexanamide]?
fold induction at 2.5 µM: 1.2; fold induction at 5 µM: 2.1; fold induction at 10 µM: 10.4; fold induction at 20 µM: 26.4

Which results are given for `COc1cc2c(c(-c3cccnc3)c1OC)CN(Cc1ccc(C(=O)Nc3ccccc3N)cc1)C2=O` [Example 4, N-(2-aminophenyl)-4-((5,6-dimethoxy-1-oxo-4-(pyridin-3-yl)isoindolin-2-yl)methyl)benzamide]?
fold induction at 2.5 µM: 37; fold induction at 5 µM: 42.2; fold induction at 10 µM: 36.6; fold induction at 20 µM: 36.7

What does the source list for `COc1cc(C(=O)NCc2ccc(C(=O)Nc3ccccc3N)cc2)c(C)c(-c2cc(F)cc(F)c2)c1OC` [Example 79, N-(2-aminophenyl)-4-((2-methyl-3-(3,5-difluorophenyl)-4,5-dimethoxy-benzamido)methyl)benzamide]?
fold induction at 2.5 µM: 13.5; fold induction at 5 µM: 24.4; fold induction at 10 µM: 31.3; fold induction at 20 µM: 31.7

For `COc1cc(C(=O)NCc2ccc(C(=O)Nc3ccccc3N)cc2)c(C)c(-c2cccc(N)c2)c1OC` [Example 77, N-(2-aminophenyl)-4-((3-(3-aminophenyl)-4,5-dimethoxy-2-methyl-benzamido)methyl)benzamide], which fold induction at 2.5 µM is on record?
The fold induction at 2.5 µM was 4.9.

What about the fold induction at 5 µM of the same compound?
Its fold induction at 5 µM is 11.

And the fold induction at 10 µM?
Its fold induction at 10 µM is 24.5.

What about the fold induction at 20 µM of the same compound?
Its fold induction at 20 µM is 33.5.

Which results are given for `O=C(CCCCCN1Cc2c(cccc2-c2ccc(C(F)(F)F)cc2)C1=O)NO` [Example 44, 6-(4-(4-(trifluoromethyl)phenyl)-1-oxoisoindolin-2-yl)-N-hydroxyhexanamide]?
fold induction at 2.5 µM: 1.2; fold induction at 5 µM: 1.2; fold induction at 10 µM: 1.3; fold induction at 20 µM: 1.4

With `Cc1c(C(=O)NCCCCCC(=O)Nc2ccccc2N)cccc1-c1ccncc1` [Example 84, N-(5-(2-aminophenylcarbamoyl)pentyl)-2-methyl-3-(4-pyridinyl)-benzamide] as the compound, how does the fold induction at 2.5 µM read?
Its fold induction at 2.5 µM is 1.9.

And the fold induction at 5 µM?
The fold induction at 5 µM was 3.3.

What about the fold induction at 10 µM of the same compound?
Its fold induction at 10 µM is 7.8.

What about the fold induction at 20 µM of the same compound?
Its fold induction at 20 µM is 17.3.

How did the fold induction at 2.5 µM turn out when `Cc1cc(C)cc(-c2cccc3c2CN(Cc2ccc(C(=O)Nc4ccccc4N)cc2)C3=O)c1` [Example 12, N-(2-aminophenyl)-4-((4-(3,5-dimethylphenyl)-1-oxoisoindolin-2-yl)methyl)benzamide] was run?
The fold induction at 2.5 µM was 5.5.

And the fold induction at 5 µM?
The fold induction at 5 µM was 9.

What about the fold induction at 10 µM of the same compound?
The fold induction at 10 µM was 12.2.

And the fold induction at 20 µM?
The fold induction at 20 µM was 10.4.

How did the fold induction at 2.5 µM turn out when `Nc1ccccc1NC(=O)c1ccc(CN2Cc3c(cccc3-c3ccc(F)cc3)C2=O)cc1` [Example 30, N-(2-aminophenyl)-4-((4-(4-fluorophenyl)-1-oxoisoindolin-2-yl)methyl)benzamide] was run?
The fold induction at 2.5 µM was 13.5.

What about the fold induction at 5 µM of the same compound?
Its fold induction at 5 µM is 20.5.

And the fold induction at 10 µM?
The fold induction at 10 µM was 28.8.

What about the fold induction at 20 µM of the same compound?
Its fold induction at 20 µM is 30.4.

How did the fold induction at 2.5 µM turn out when `Nc1ccccc1NC(=O)c1ccc(CN2Cc3c(Br)cccc3C2=O)cc1` [Example 9, N-(2-aminophenyl)-4-((4-bromo-1-oxoisoindolin-2-yl)methyl)benzamide] was run?
Its fold induction at 2.5 µM is 12.4.

And the fold induction at 5 µM?
The fold induction at 5 µM was 11.3.

What about the fold induction at 10 µM of the same compound?
The fold induction at 10 µM was 9.7.

And the fold induction at 20 µM?
The fold induction at 20 µM was 9.4.

What does the source list for `COc1cc2c(c(-c3ccc(C(F)(F)F)cc3)c1OC)CN(Cc1ccc(C(=O)Nc3ccccc3N)cc1)C2=O` [Example 6, N-(2-aminophenyl)-4-((4-(4-(trifluoromethyl)phenyl)-5,6-dimethoxy-1-oxoisoindolin-2-yl)methyl)benzamide]?
fold induction at 2.5 µM: 14.2; fold induction at 5 µM: 18.3; fold induction at 10 µM: 17.2; fold induction at 20 µM: 9.3

What does the source list for `COc1cc2c(c(-c3ccccc3)c1OC)CN(CCCCCC(=O)Nc1ccccc1N)C2=O` [Example 31, N-(2-aminophenyl)-6-(5,6-dimethoxy-1-oxo-4-phenylisoindolin-2-yl)hexanamide]?
fold induction at 2.5 µM: 12.2; fold induction at 5 µM: 21.2; fold induction at 10 µM: 26.2; fold induction at 20 µM: 29.3

With `Cc1cc(C(=O)NCCCCCC(=O)Nc2ccccc2N)ccc1-c1ccccc1` [Example 86, N-(5-(2-aminophenylcarbamoyl)pentyl)-3-methyl-4-phenyl-benzamide] as the compound, how does the fold induction at 2.5 µM read?
Its fold induction at 2.5 µM is 1.2.

What about the fold induction at 5 µM of the same compound?
The fold induction at 5 µM was 1.9.

What about the fold induction at 10 µM of the same compound?
Its fold induction at 10 µM is 3.4.

What about the fold induction at 20 µM of the same compound?
Its fold induction at 20 µM is 3.7.

Which fold induction at 2.5 µM does the source give for `COc1ccc(-c2cccc3c2CN(CCCCCC(=O)NO)C3=O)c(OC)c1` [Example 39, N-hydroxy-6-(4-(2,4-dimethoxyphenyl)-1-oxoisoindolin-2-yl)hexanamide] here?
Its fold induction at 2.5 µM is 1.4.

What about the fold induction at 5 µM of the same compound?
Its fold induction at 5 µM is 2.1.

And the fold induction at 10 µM?
The fold induction at 10 µM was 5.3.

What about the fold induction at 20 µM of the same compound?
Its fold induction at 20 µM is 25.6.
